# Laboratory results: ChEMBL document CHEMBL3596196, “In vitro evaluation and in silico screening of synthetic acetylcholinesterase inhibitors bearing functionalized piperidine pharmacophores” (Bioorg Med Chem, 2015)
# Biological target: Acetylcholinesterase (Homo sapiens, UniProt P22303)
# Experiment: Inhibition of human acetylcholinesterase using ATCI/DTNB as substrate preincubated for 30 mins followed by substrate addition measured for 60 mins by Ellman method
# Conditions: not given; call rule not given here
# Sequence of Acetylcholinesterase (P22303 whole entry): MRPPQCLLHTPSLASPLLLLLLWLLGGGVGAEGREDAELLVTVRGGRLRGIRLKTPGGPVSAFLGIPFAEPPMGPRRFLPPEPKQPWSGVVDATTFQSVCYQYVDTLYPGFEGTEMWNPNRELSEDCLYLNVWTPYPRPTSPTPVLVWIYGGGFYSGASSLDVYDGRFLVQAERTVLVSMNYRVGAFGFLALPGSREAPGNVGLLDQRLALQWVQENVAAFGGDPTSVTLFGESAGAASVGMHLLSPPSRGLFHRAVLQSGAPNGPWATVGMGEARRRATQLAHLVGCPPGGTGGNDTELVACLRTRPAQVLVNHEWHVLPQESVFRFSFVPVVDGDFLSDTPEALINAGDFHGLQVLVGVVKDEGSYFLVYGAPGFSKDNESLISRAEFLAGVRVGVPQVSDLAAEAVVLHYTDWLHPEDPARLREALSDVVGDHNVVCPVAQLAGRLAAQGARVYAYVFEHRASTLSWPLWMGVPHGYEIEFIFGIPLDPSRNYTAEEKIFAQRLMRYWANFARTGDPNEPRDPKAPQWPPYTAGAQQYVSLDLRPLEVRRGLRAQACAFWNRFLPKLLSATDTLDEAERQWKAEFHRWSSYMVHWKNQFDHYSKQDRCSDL
row,SMILES,IC50
1,COC(=O)C1=C(Nc2ccccc2)C[C@@H](c2ccccc2[N+](=O)[O-])N(c2ccccc2)[C@@H]1c1ccccc1[N+](=O)[O-],Not Active

# Same assay, conditions: read-out: IC50
row,SMILES,IC50 [µM]
1,COC(=O)C1=C(Nc2ccccc2)C[C@@H](c2ccc3c(c2)OCO3)N(c2ccccc2)[C@@H]1c1ccc2c(c1)OCO2,3270

# Same assay, conditions: read-out: pIC50 (converted)
row,SMILES,IC50 [µM]
1,COC(=O)C1=C(Nc2ccc(Cl)cc2)C[C@@H](c2ccc(F)cc2)N(c2ccc(Cl)cc2)[C@@H]1c1ccc(F)cc1,0.71
2,CCOC(=O)C1=C(Nc2ccc(Cl)cc2)C[C@@H](c2ccc(OC)cc2)N(c2ccc(Cl)cc2)[C@@H]1c1ccc(OC)cc1,0.38
3,COC(=O)C1=C(Nc2ccc(OC)cc2)C[C@@H](c2ccc(C)cc2)N(c2ccc(OC)cc2)[C@@H]1c1ccc(C)cc1,5.83
4,COC(=O)C1=C(Nc2ccccc2)C[C@@H](c2ccc(Cl)cc2)N(c2ccccc2)[C@@H]1c1ccc(Cl)cc1,0.879
5,COC(=O)C1=C(Nc2ccc(Br)cc2)C[C@@H](c2ccc(C)cc2)N(c2ccc(Br)cc2)[C@@H]1c1ccc(C)cc1,2.48
6,CCOC(=O)C1=C(Nc2ccc(Cl)cc2)C[C@@H](c2ccccc2)N(c2ccc(Cl)cc2)[C@@H]1c1ccccc1,4.6
7,COC(=O)C1=C(Nc2ccc(F)cc2)C[C@@H](c2ccccc2)N(c2ccc(F)cc2)[C@@H]1c1ccccc1,15.1
8,CCOC(=O)C1=C(Nc2ccccc2)C[C@@H](c2ccccc2)N(c2ccccc2)[C@@H]1c1ccccc1,2.95
9,CCOC(=O)C1=C(Nc2ccccc2)C[C@@H](c2ccc(C)cc2)N(c2ccccc2)[C@@H]1c1ccc(C)cc1,5.58
10,CCOC(=O)C1=C(Nc2ccc(C)cc2)C[C@@H](c2ccccc2)N(c2ccc(C)cc2)[C@@H]1c1ccccc1,5.18
11,CCOC(=O)C1=C(Nc2ccc(C)cc2)C[C@@H](c2ccc(Cl)cc2)N(c2ccc(C)cc2)[C@@H]1c1ccc(Cl)cc1,5.4
12,COC(=O)C1=C(Nc2ccccc2)C[C@@H](c2ccc3c(c2)OCO3)N(c2ccccc2)[C@@H]1c1ccc2c(c1)OCO2,0.511
13,COC(=O)C1=C(Nc2ccc(F)cc2)C[C@@H](c2ccc(F)cc2)N(c2ccc(F)cc2)[C@@H]1c1ccc(F)cc1,3.2
14,CCOC(=O)C1=C(Nc2ccccc2)C[C@@H](c2ccc(F)cc2)N(c2ccccc2)[C@@H]1c1ccc(F)cc1,0.39
15,COC(=O)C1=C(Nc2ccc(Cl)cc2)C[C@@H](c2ccc(C)cc2)N(c2ccc(Cl)cc2)[C@@H]1c1ccc(C)cc1,2.15
16,CCOC(=O)C1=C(Nc2ccc(OC)cc2)C[C@@H](c2ccc(C)cc2)N(c2ccc(OC)cc2)[C@@H]1c1ccc(C)cc1,4.98
17,CC(C)(C)OC(=O)C1=C(Nc2ccccc2)C[C@@H](c2ccccc2)N(c2ccccc2)[C@@H]1c1ccccc1,2.79
18,COC(=O)C1=C(Nc2ccccc2)C[C@@H](c2ccccc2)N(c2ccccc2)[C@@H]1c1ccccc1,6.52
19,COC(=O)C1=C(Nc2ccc(C)cc2)C[C@@H](c2ccc(C)cc2)N(c2ccc(C)cc2)[C@@H]1c1ccc(C)cc1,6.78
20,COC(=O)C1=C(Nc2ccc(Br)cc2)C[C@@H](c2ccc(OC)cc2)N(c2ccc(Br)cc2)[C@@H]1c1ccc(OC)cc1,2.16
21,CCOC(=O)C1=C(Nc2ccc(F)cc2)C[C@@H](c2ccc(Cl)cc2)N(c2ccc(F)cc2)[C@@H]1c1ccc(Cl)cc1,0.55
22,COC(=O)C1=C(Nc2ccccc2)C[C@@H](c2ccc(C)cc2)N(c2ccccc2)[C@@H]1c1ccc(C)cc1,5.73
23,COC(=O)C1=C(Nc2ccc(Br)cc2)C[C@@H](c2ccc(Cl)cc2)N(c2ccc(Br)cc2)[C@@H]1c1ccc(Cl)cc1,0.879
24,CCOC(=O)C1=C(Nc2ccc(OC)cc2)C[C@@H](c2ccccc2)N(c2ccc(OC)cc2)[C@@H]1c1ccccc1,2.25
